Measured values from patent US20090012133A1, “Polymorphic Form of -Acetic Acid” (SMITHKLINE BEECHAM CORPORATION, priority 2006, published 2009).

Experiments:
[1] = stability of the crystal form at ambient temperatures; format: physicochemical
[2] = hygroscopicity of the crystalline form; format: physicochemical

Compound: Cc1cc(SCc2sc(-c3ccc(C(F)(F)F)cc3)nc2C)ccc1OCC(=O)O [Form 7, {2-methyl-4-[4-methyl-2-(4-trifluoromethylphenyl)thiazol-5-ylmethylthio]phenoxy}-acetic acid]
- stability of crystal form [1]: stable
- hygroscopic nature of crystalline form [2]: non-hygroscopic
